In publication doi:10.1101/2021.09.16.460603v1 (biorxiv, 2021):

Target: T1, Bovine liver catalase (CAT) (Bos taurus, UniProt P00432)
T1 sequence (P00432 2-527): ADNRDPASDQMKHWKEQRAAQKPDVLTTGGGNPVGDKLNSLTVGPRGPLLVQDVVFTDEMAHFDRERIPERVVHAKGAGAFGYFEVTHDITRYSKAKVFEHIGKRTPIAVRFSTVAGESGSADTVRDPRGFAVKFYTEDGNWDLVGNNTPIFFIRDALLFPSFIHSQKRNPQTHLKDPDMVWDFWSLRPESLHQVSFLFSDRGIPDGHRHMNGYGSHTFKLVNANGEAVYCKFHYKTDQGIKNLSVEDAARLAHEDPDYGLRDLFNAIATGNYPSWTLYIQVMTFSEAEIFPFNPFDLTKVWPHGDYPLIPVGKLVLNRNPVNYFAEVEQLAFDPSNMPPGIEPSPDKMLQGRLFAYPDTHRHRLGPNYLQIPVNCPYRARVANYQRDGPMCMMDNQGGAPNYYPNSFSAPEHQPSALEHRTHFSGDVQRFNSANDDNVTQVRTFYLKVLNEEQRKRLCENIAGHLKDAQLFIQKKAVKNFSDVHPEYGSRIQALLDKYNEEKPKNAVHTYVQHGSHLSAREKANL
Assay: H2O2 disappearance at […] nm after […] min preincubation with D-Pen
Assay type: biochemical

IC50: 191 ± 26 µM
SMILES: CC(C)(S)[C@@H](N)C(=O)O [D-penicillamine]
